The results in this text go back to patent US20250326771A1, “PIPERAZINE DERIVATIVES USEFUL IN HIV THERAPY” (VIIV HEALTHCARE COMPANY, priority 2022, published 2025).

Experiment [1] relates to Jurkat HIV-luciferase clones. The experiment can be described thus: Jurkat latency reversal assay. Particulars: Homo sapiens, 48 h; Jurkat latency reversal assay potency; read-out: Jurkat pEC50 (converted). The class given is cell-based. In a few lines:
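Luminescence read-out: Steady-Glo after 48 h, 37° C, on mixed Jurkat HIV-luc clones (C16, 115, N6; 5,000 cells/well total). Cpd 14-pt 3-fold dilutions, duplicate, top 10 μM, 0.5% DMSO. EC50 + max % activation vs vehicle via 4-parameter fit.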

Experiment [2] addresses cIAP1-BIR3 (Homo sapiens (Human), UniProt Q13490). The experiment can be described thus: BIR binding assay (FRET competition), cIAP1 BIR3. Particulars: for cIAP1 BIR3 vs BIR2 separation window: fold separation (FS) for cIAP1. A digest of the protocol: (§1)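 Compounds tested as 15-point, 3-fold series displacing 200 nM AlexaFluor647-labelled SMAC peptide from His-tagged BIR domain (cIAP1-BIR3 50 nM; cIAP1-BIR2 and cIAP2-BIR2 325 nM; XIAP-BIR3 100 nM), pH 7.4, 60 min. Eu-W1024 (2 nM) added 30 min; emission ratio fitted for IC50.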

Experiment [3] deals with cIAP2-BIR3 (Homo sapiens (Human), UniProt Q13489). The experiment can be described thus: BIR binding assay (FRET competition), cIAP2 BIR3. The note with it: for cIAP2 BIR3 vs BIR2 separation window: fold separation (FS) for cIAP2.
Chain of cIAP2-BIR3 (Q13489 238-349): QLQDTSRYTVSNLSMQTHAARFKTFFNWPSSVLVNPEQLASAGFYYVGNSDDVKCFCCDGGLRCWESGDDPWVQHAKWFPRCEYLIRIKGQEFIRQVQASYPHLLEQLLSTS
Experiment [4] addresses XIAP-BIR3 (Homo sapiens (Human), UniProt P98170). The experiment can be described thus: BIR binding assay (FRET competition), XIAP BIR3. Particulars: for XIAP BIR3 vs BIR2 separation window: fold separation (FS) for XIAP. A digest of the protocol:
as §1

For experiment [5], the target named is XIAP-BIR2 (Homo sapiens (Human), UniProt P98170). The experiment can be described thus: BIR binding assay (FRET competition), XIAP BIR2. Particulars: for IC50: read-out: XIAP BIR2 (pIC50) (converted). The procedure:
The BIR domain binding assays are FRET based competition assays that utilize His-tagged versions of each of the BIR2 and BIR3 domains from cIAP1, cIAP2, and XIAP (each domain assayed separately) each at a custom optimal concentration and a probe, 200 nM SMAC/DIABLO peptide AVPIAQKSE labelled with AlexaFluor647 (part #crb 1110326h, Discovery Peptides). The assay is conducted in 50 mM HEPES, […], 1 mM CHAPS, 5% Glycerol, 1 mM DTT, in dI water with a final pH of 7.4 and final volume of 20 uL. Final protein domain concentrations are: 50 nM cIAP1-BIR3 (Part #APT-11-370 Reaction Biology), 100 nM XIAP-BIR3 (Part #APT-11-351 Reaction Biology), 200 nM XIAP-BIR2 (Part #APT-11-470 Reaction Biology), 325 nM cIAP2-BIR2 (Part #APT-11-489 Reaction Biology), 50 nM cIAP2-BIR3 (Part #APT-11-372 Reaction Biology), 325 nM cIAP1-BIR2 (Part #APT-11-487 Reaction Biology). Compounds were plated using a HP Tecan D300 printer in a final total volume of 202 nl and DMSO concentration normalized across the 15-point, 3-fold dilution series. Peptide and probe were prepared at 2× relative to the concentrations above in binding buffer, 10 uL added to the prepared compound plates, and incubated for 60 minutes. LANCE Eu-W1024 (part #AD0401 Perkin Elmer #, vendor) was prepared at 2× concentration in binding buffer for final concentration of 2 nM, 10 uL added to each well, and plates incubated for 30 minutes. Plates were read on an ENVISION multifunction plate reader with […] laser excitation to obtain the 615 nm/665 nm emission ratio as indicative of probe:protein proximity. Data was analyzed using GraphPad PRISM and curves fit using log(inhibitor) vs. response—Variable slope (four […] method to obtain IC50 and pIC50 values.

Experiment [6] concerns the target cIAP2-BIR2 (Homo sapiens (Human), UniProt Q13489). The experiment can be described thus: BIR binding assay (FRET competition), cIAP2 BIR2. A digest of the protocol:
as §1

In experiment [7] the target is cIAP1-BIR2 (Homo sapiens (Human), UniProt Q13490). The experiment can be described thus: BIR binding assay (FRET competition), cIAP1 BIR2. A digest of the protocol:
as §1

pIC50: −log10 of the molar value. Like-named read-outs stand apart in the source and are kept apart here.

Chain of cIAP2-BIR2 (Q13489 158-242): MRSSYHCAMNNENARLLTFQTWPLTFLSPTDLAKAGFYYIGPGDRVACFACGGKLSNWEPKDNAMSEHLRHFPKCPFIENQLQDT
Chain of XIAP-BIR2 (P98170 124-240): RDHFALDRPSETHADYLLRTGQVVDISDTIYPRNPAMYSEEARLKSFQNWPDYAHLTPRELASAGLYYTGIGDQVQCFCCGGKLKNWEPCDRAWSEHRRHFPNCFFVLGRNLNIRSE
Chain of cIAP1-BIR3 (Q13490 253-363): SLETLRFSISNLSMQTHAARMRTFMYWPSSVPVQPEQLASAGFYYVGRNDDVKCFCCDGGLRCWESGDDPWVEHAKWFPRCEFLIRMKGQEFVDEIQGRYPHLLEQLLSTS
Chain of XIAP-BIR3 (P98170 241-356): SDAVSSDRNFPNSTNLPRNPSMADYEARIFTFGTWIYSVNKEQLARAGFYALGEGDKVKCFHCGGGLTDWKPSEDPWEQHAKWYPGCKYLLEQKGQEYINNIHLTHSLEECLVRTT
Chain of cIAP1-BIR2 (Q13490 173-257): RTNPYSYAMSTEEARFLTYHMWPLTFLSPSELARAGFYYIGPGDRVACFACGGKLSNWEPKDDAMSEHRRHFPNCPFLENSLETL

Consider `C[C@@H]1CN(CC(=O)N2CC(C)(C)c3[nH]c(=O)c(Cc4ccc(F)cc4)cc32)[C@@H](CN2CCO[C@H](COc3ccccc3Cc3ccccc3OC[C@@H]3CN(C[C@H]4CN[C@H](C)CN4CC(=O)N4CC(C)(C)c5[nH]c(=O)c(Cc6ccc(F)cc6)cc54)CCO3)C2)CN1` [Example 66, 1,1′-(2,2′-((3R,3′R,6R,6′R)-(((2S,2'S)-(((methylenebis(2,1-phenylene))bis(oxy))bis(methylene))bis(morpholine-2,4-diyl))bis(methylene))bis(3-methylpiperazine-6,1-diyl))bis(acetyl))bis(6-(4-fluorobenzyl)-3,3-dimethyl-1,2,3,4-tetrahydro-5H-pyrrolo[3,2-b]pyridin-5-one)], for which, in experiment [1], the EC50 was 0.49 to 12.6 nM. Moreover, the pIC50 in experiment [2] is 7.50 to 7.80; in experiment [3], 7.80 to 8.10; in experiment [4], 7.50 to 7.80. The “XIAP BIR3 vs BIR2 separation window” value in experiment [4] is given as “++++ (FS>10,000)”. In addition, the IC50 in experiment [5] (FRET competition binding) is 10000 to 51300 nM.

Turning to `C[C@@H]1CN(CC(=O)N2CC(C)(C)c3[nH]c(=O)c(Oc4ccc(Cl)cc4)cc32)[C@@H](CN2CCO[C@H](C(=O)NCc3ccc(CNC(=O)[C@@H]4CN(C[C@H]5CN[C@H](C)CN5CC(=O)N5CC(C)(C)c6[nH]c(=O)c(Oc7ccc(Cl)cc7)cc65)CCO4)cc3)C2)CN1` [Compound 182, (2S,2′S)-N,N′-(1,4-phenylenebis(methylene)) bis(4-(((2R,5R)-1-(2-(6-(4-chlorophenoxy)-3,3-dimethyl-5-oxo-2,3,4,5-tetrahydro-1H-pyrrolo[3,2-b]pyridin-1-yl)-2-oxoethyl)-5-methylpiperazin-2-yl)methyl)morpholine-2-carboxamide)], the EC50 in experiment [1] was 63.1 to 316 nM. The negative logarithm of the IC50 (pIC50) is 7.80 to 8.10 in experiment [2], 8.10 to 8.86 in experiment [3], 5.00 to 5.50 in experiment [6] and 6.30 to 7.50 in experiment [4]. Also, the “cIAP2 BIR3 vs BIR2 separation window” value in experiment [3] was “+++ (10,000>FS>1,000)”. Moreover, the “XIAP BIR3 vs BIR2 separation window” value in experiment [4] is recorded as “+++ (10,000>FS>1,000)”. Further, the IC50 in experiment [5] (FRET competition) is 10000 to 51300 nM.

For the compound `C[C@@H]1CN(CC(=O)N2CC(C)(C)c3ncc(Oc4ccc(F)cc4)cc32)[C@@H](CN2CCO[C@H](COc3cccc(OC[C@@H]4CN(C[C@H]5CN[C@H](C)CN5CC(=O)N5CC(C)(C)c6ncc(Oc7ccc(F)cc7)cc65)CCO4)c3)C2)CN1` [Compound 142, 1-[6-(4-fluorophenoxy)-3,3-dimethyl-2H-pyrrolo[3,2-b]pyridin-1-yl]-2-[(2R,5R)-2-[[(2S)-2-[[3-[[(2S)-4-[[(2R,5R)-1-[2-[6-(4-fluorophenoxy)-3,3-dimethyl-2H-pyrrolo[3,2-b]pyridin-1-yl]-2-oxo-ethyl]-5-methyl-piperazin-2-yl]methyl]morpholin-2-yl]methoxy]phenoxy]methyl]morpholin-4-yl]methyl]-5-methyl-piperazin-1-yl]ethanone], the EC50 in experiment [1] is 12.6 to 63.1 nM. The pIC50 is 7.50 to 7.80 in experiment [2], 4.29 to 5.00 in experiment [7], 7.50 to 7.80 in experiment [3] and 6.30 to 7.50 in experiment [4]. Further, the “cIAP1 BIR3 vs BIR2 separation window” value in experiment [2] is “+++ (10,000>FS>1,000)”. In experiment [4], the “XIAP BIR3 vs BIR2 separation window” value was “+++ (10,000>FS>1,000)”. In addition, the IC50 in experiment [5] (FRET competition) is 10000 to 51300 nM.

Take `C[C@@H]1CN(CC(=O)N2CC(C)(C)c3[nH]c(=O)c(Cc4ccc(F)cc4)cc32)[C@@H](CN2CCO[C@H](COc3ccc(Oc4cccc(Oc5ccc(OC[C@@H]6CN(C[C@H]7CN[C@H](C)CN7CC(=O)N7CC(C)(C)c8[nH]c(=O)c(Cc9ccc(F)cc9)cc87)CCO6)cc5)c4)cc3)C2)CN1` [Example 60, 1,1′-(2,2′-((3R,3′R,6R,6′R)-(((2S,2'S)-((((1,3-phenylenebis(oxy))bis(4,1-phenylene))bis(oxy))bis(methylene))bis(morpholine-2,4-diyl))bis(methylene))bis(3-methylpiperazine-6,1-diyl))bis(acetyl))bis(6-(4-fluorobenzyl)-3,3-dimethyl-1,2,3,4-tetrahydro-5H-pyrrolo[3,2-b]pyridin-5-one)]: the EC50 in experiment [1] is 12.6 to 63.1 nM. The pIC50 in experiment [2] was 6.30 to 7.50; in experiment [3], 7.50 to 7.80; in experiment [6], 4.29 to 5.00; in experiment [4], 6.30 to 7.50; in experiment [5] it was 4.29 to 5.00. Also, the “cIAP2 BIR3 vs BIR2 separation window” value in experiment [3] was “++++ (FS>10,000)”. For the same compound, the “XIAP BIR3 vs BIR2 separation window” value in experiment [4] is given as “++++ (FS>10,000)”.

In the case of `C[C@@H]1CN(CC(=O)N2CC(C)(C)c3[nH]c(=O)c(Cc4ccc(F)cc4)cc32)[C@@H](CN2CCC(C(F)(F)COc3cccc(OCC(F)(F)C4CCN(C[C@H]5CN[C@H](C)CN5CC(=O)N5CC(C)(C)c6[nH]c(=O)c(Cc7ccc(F)cc7)cc65)CC4)c3)CC2)CN1` [Example 110, 1,1′-(2,2′-((3R,3′R,6R,6′R)-((((1,3-phenylenebis(oxy))bis(1,1-difluoroethane-2,1-diyl))bis(piperidine-4,1-diyl))bis(methylene))bis(3-methylpiperazine-6,1-diyl))bis(acetyl))bis(6-(4-fluorobenzyl)-3,3-dimethyl-1,2,3,4-tetrahydro-5H-pyrrolo[3,2-b]pyridin-5-one)], the EC50 in experiment [1] was 0.49 to 12.6 nM. For the same compound, the pIC50 in experiment [2], in experiment [3] and in experiment [4] was 7.50 to 7.80 throughout. In addition, the “XIAP BIR3 vs BIR2 separation window” value in experiment [4] is recorded as “++++ (FS>10,000)”. The IC50 in experiment [5] (FRET competition binding) is 10000 to 51300 nM.

`C[C@@H]1CN(CC(=O)N2CC(C)(C)c3[nH]c(=O)c(Cc4ccc(F)cc4)cc32)[C@@H](CN2CCO[C@H](COc3ccc(-c4ccccc4)c(OC[C@@H]4CN(C[C@H]5CN[C@H](C)CN5CC(=O)N5CC(C)(C)c6[nH]c(=O)c(Cc7ccc(F)cc7)cc65)CCO4)c3)C2)CN1` [Example 78, 1,1′-(2,2′-((3R,3′R,6R,6′R)-(((2S,2'S)—(([1,1′-biphenyl]-2,4-diylbis(oxy))bis(methylene))bis(morpholine-2,4-diyl))bis(methylene))bis(3-methylpiperazine-6,1-diyl))bis(acetyl))bis(6-(4-fluorobenzyl)-3,3-dimethyl-1,2,3,4-tetrahydro-5H-pyrrolo[3,2-b]pyridin-5-one)]: the EC50 in experiment [1] was 12.6 to 63.1 nM. The negative logarithm of the IC50 (pIC50) in experiment [2] was 8.10 to 8.86; in experiment [3], 8.10 to 8.86; in experiment [4] it was 7.80 to 8.10. In addition, the “XIAP BIR3 vs BIR2 separation window” value in experiment [4] is listed as “+++ (10,000>FS>1,000)”. Further, the “XIAP BIR2 (pIC50)” value in experiment [5] (FRET competition binding) was “++ (5.00<pIC50<=5.50)”.

As for `C[C@@H]1CN(CC(=O)N2CC(C)(C)c3[nH]c(=O)c(Cc4ccc(F)cc4)cc32)[C@@H](CN2CCO[C@H](COc3ccc(Cl)c(OC[C@@H]4CN(C[C@H]5CN[C@H](C)CN5CC(=O)N5CC(C)(C)c6[nH]c(=O)c(Cc7ccc(F)cc7)cc65)CCO4)c3)C2)CN1` [Example 89, 1,1′-(2,2′-((3R,3′R,6R,6′R)-(((2S,2'S)-(((4-chloro-1,3-phenylene)bis(oxy))bis(methylene))bis(morpholine-2,4-diyl))bis(methylene))bis(3-methylpiperazine-6,1-diyl))bis(acetyl))bis(6-(4-fluorobenzyl)-3,3-dimethyl-1,2,3,4-tetrahydro-5H-pyrrolo[3,2-b]pyridin-5-one)], in experiment [1], the EC50 is 0.49 to 12.6 nM. The negative-log IC50 (pIC50) was 7.50 to 7.80 in experiment [2]; 5.00 to 5.50 in experiment [7]; 7.80 to 8.10 in experiment [3]; 5.50 to 6.00 in experiment [6]; 7.50 to 7.80 in experiment [4]. Moreover, the “cIAP1 BIR3 vs BIR2 separation window” value in experiment [2] was “+++ (10,000>FS>1,000)”. For the same compound, the “cIAP2 BIR3 vs BIR2 separation window” value in experiment [3] was “+++ (10,000>FS>1,000)”.

By pIC50 is commonly meant the IC50 on a negative log10 scale, so that one unit is a factor of ten. A high value points to a small IC50.
